In US10703748B2, “Diazanaphthalen-3-yl carboxamides and preparation and use thereof” (Samumed, LLC, priority 2017, dated 2020):

Legend:
[1] = molecular target: DYRK1A kinase (Homo sapiens, UniProt Q13627); experiment: DYRK1A kinase activity (Ser/Thr 18 peptide Z-lyte FRET assay); assay type: biochemical; conditions: recombinant DYRK1A, 30 μM ATP, one hour at room temperature;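 also: kinase activity read as coumarin/fluorescein emission ratio after development step, with unphosphorylated and phosphorylated peptide forms setting 0% and 100% controls, values from dose-response curves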
[2] = molecular target: GSK3β kinase (Homo sapiens, UniProt P49841); experiment: GSK3β kinase activity (Ser/Thr 09 peptide Z-lyte FRET assay); assay type: biochemical; conditions: recombinant kinase, 46 μM ATP, one hour at room temperature; read-out: EC50
[3] = system: Tau phosphorylation at Ser396 (pSer396); experiment: Tau phosphorylation at Ser396 (pSer396) in SH-SY5Y cells, ELISA / western blot; assay type: cell-based, human; conditions: Homo sapiens; SH-SY5Y cells, overnight (16-18 h); read-out: pSer396 Tau EC50;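 also: decrease in pSer396 Tau measured in lysates of treated cells by colorimetric ELISA or chemiluminescent western blot, same pSer396 antibody for both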
Experimental: Two days before treatment, cells were seeded onto 96 well plates at 5×10^4 cells/well.
The above synthesized compounds were screened using the cell assay procedure to assess decrease Tau phosphorylation at Ser396 (pSer396) described below.
Cells were lysed with RIPA buffer complemented with phosphatase and protease inhibitors then lysates were spun down at 12,000 g for 10 min to remove any cellular debris.

[4] = system: Tau phosphorylation at Threonine 212 (pT212Tau); experiment: Tau phosphorylation at Threonine 212 (pT212Tau) in Dyrk1a- and MAPT-overexpressing HEK293T cells, sandwich ELISA; assay type: cell-based; conditions: Homo sapiens, HEK-293T, overnight (16-18 hours), read-out: Thr212 EC50
Experimental: HEK293T cells (transfectable human embryonic kidney cells) were cultured in DMEM medium supplemented with 10% FBS and 1% penicillin/streptomycin.
HEK293T cells were transiently transfected to overexpress Dyrk1a and microtubule-associated protein Tau (MAPT) genes. Specifically, Dyrk1a and MAPT expression vectors were obtained from OriGene (10 μg of each, catalog numbers SC314641 and RC216166, respectively). A MaxiPrep for each vector was ordered and received from GeneWiz, yielding 874.5 μg (resuspended at […]) of the Dyrk1a expression vector, and 898 μg (resuspended at […]) of MAPT.
HEK293T cells were seeded at 1.0×10^7 cells in 10 mL per T-75 flask. […] One T-75 flask was designated as a no-vector negative control for pT212Tau signal.
After 4-6 hours of incubation in transfection reagents, transiently double transfected HEK293T cells were dissociated by treatment with trypsin EDTA and seeded at 1.0×10^5 cells in 100 μL per well in 96-well plates. No-vector negative controls were seeded in separate 96-well plates to avoid the risk of the negative control cells picking up the overexpression during incubation. At the time of seeding, DMSO-resuspended Samumed compounds were dispensed to eight wells as a serial dilution from 10 μM to 4.6 nM final concentration in medium, or at 0.12 μM to 0.05 nM with particularly potent compounds. Cells were exposed to the representative compounds overnight (16-18 hours) in a 37° C. incubator.
96-Well flat-bottom plates were coated with 100 μL per well anti-HT7 capture antibody (ThermoFisher, MN1000) diluted 1:300 in 1×PBS at 4° C. overnight, with shaking at 500 rpm. After overnight capture antibody incubation, coated plates were washed four times with 200 μL per well of 1×PBS-0.05% Tween-20, and blocked for 1 hour with 200 μL per well of 1×PBS with 2% BSA. After 1 hour of blocking, plates were washed four times with 200 μL per well of 1×PBS-0.05% Tween-20, prior to sample loading.
Wells of compound-treated cells were visually checked for cell death before being washed with 200 μL per well of 1×DPBS supplemented with phosphatase inhibitor diluted to 1×. Cells were then lysed with 100 μL 1×RIPA buffer supplemented with phosphatase and protease inhibitors (each diluted to a final 1×). Cells were shaken at 500 rpm, 4° C. for 20 minutes prior to further lysis (via manual scraping) and transfer to 96-well V-bottom collection plates (Corning, 3894). V-bottom plates were centrifuged at 4000 rpm, 4° C., for 15 minutes, and 100 μL of lysate supernatant from each well was directly tested for pT212Tau signal by sandwich ELISA.
Specifically, lysates were directly transferred to the coated and blocked ELISA plates for 2 hours before plates were washed four times with 200 μL per well of 1×PBS-0.05% Tween-20 and probed with 100 μL per well of anti-pT212Tau antibody (ThermoFisher, 44-740G) diluted 1:200 in 1×PBS for 2 hours. Plates were washed four times with 200 μL per well of 1×PBS-0.05% Tween-20 and probed with 100 μL per well of anti-rabbit/HRP conjugate (Cell Signaling Technology, 7074S) diluted 1:600 in 1×PBS for 1 hour. Plates were washed four times with 200 μL per well of 1×PBS-0.05% Tween-20 before 100 μL per well of TMB substrate solution (ThermoFisher, N301) was added. When colour development was observed, 100 μL per well of stop solution (ThermoFisher, N600) was added, and colorimetric detection of pT212Tau signal was read at 450 nm with the Cytation 3 Cell Imaging Multi-Mode Reader (BioTek). The signal was used to plot, draw the curves fitting, and determine the EC50 values in GraphPad Prism for tested representative compounds.

[5] = system: secreted cytokines TNFα, IL-6 and KC-GRO; experiment: Secreted cytokines in Lipopolysaccharide-stimulated BV-2 cells (Table 9 does not say which cytokine); assay type: cell-based, mouse; conditions: Mus musculus, BV-2, 5 h; read-out: EC50
Experimental: BV-2 cells (mouse microglial cells) were cultured in 1:1 DMEM medium supplemented with 10% FBS, and 1% penicillin/streptomycin.
BV-2 cells are plated at 35,000 cells/well in a volume of 100 μl for at least 4 hours before compounds are added. […] Compounds were added to cells overnight. […] Supernatant is removed and saved for further cytokine detection. The original plates with seeded cells were tested for cytotoxicity by measure of adenosine triphosphate (ATP) release by adding CellTiter-Glo® diluted 1:4 in distilled water (G7573, Promega) and transferring lysed cells to a completely black 96-well plate to be read with the Cytation3. Supernatant was then diluted 1:2 with a diluent from V-PLEX cytokine Kit and directly tested for the secreted cytokines TNFα, IL-6 and KC-GRO using electrochemiluminescence (Meso Scale Discovery). The standard curve for each cytokine was used to convert the electrochemiluminescent signal into pg of protein per mL.

[6] = system: SW480 colon carcinoma cells; experiment: Cell viability assay (CellTiter-Glo); conditions: Homo sapiens; for EC50: SW480, 96 h; for inhibition at 10 µM: SW480, read-out: percent inhibition at 10 μM
Experimental: Representative compounds were screened using the assay procedure to assess the effect on cell viability as described below.
SW480 colon carcinoma cells were transduced with a lentiviral vector expressing luciferase with a human Sp5 promoter consisting of a sequence of eight TCF/LEF binding sites. […] These stably transduced SW480 cells were expanded in cell culture and used for all further screening activities. Each compound was dissolved in DMSO as a 10 mM stock and used to prepare compound source plates.
For the Cell Viability Assays, the cells were plated at 2,000 cells/well in 384-well plates with a DMEM medium containing 1% fetal bovine serum, and 1% Penicillin-Streptomycin and incubated for four days hours at 37° C. and 5% CO2. Eight replicates of DMSO-treated cells served as controls and cells treated with compound were performed in duplicate.
After incubation, 10 μL of CellTiter-Glo (Promega) was added to each well allowed to incubate for approximately 12 minutes. This reagent “results in cell lysis and generation of a luminescent signal proportional to the amount of ATP present. The amount of ATP is directly proportional to the number of cells present in culture, in agreement with previous reports. The CellTiter-Glo Assay generates a “glow-type” luminescent signal, produced by the luciferase reaction (Promega.com)”.
Dose-response curves were generated and EC50 concentration values were calculated using non-linear regression curve fit in the GraphPad Prism (San Diego, Calif.) or Dotmatics' Studies Software (Bishops Stortford, UK).

[7] = system: Wnt-responsive Sp5-Luc reporter in SW480 colon carcinoma cells; experiment: Screening assay for Wnt activity (Sp5-Luc reporter gene assay); conditions: Homo sapiens, SW480
Experimental: The screening assay for Wnt activity is described as follows.
SW480 colon carcinoma cells were transduced with a lentiviral vector expressing luciferase with a human Sp5 promoter consisting of a sequence of eight TCF/LEF binding sites. […] These stably transduced SW480 cells were expanded in cell culture and used for all further screening activities. Each compound was dissolved in DMSO as a 10 mM stock and used to prepare compound source plates. Serial dilution (1:3, 10-point dose-response curves starting from 10 μM) and compound transfer was performed using the ECHO 550 (Labcyte, Sunnyvale, Calif.) into 384-well white solid bottom assay plates (Greiner Bio-One) with appropriate DMSO backfill for a final DMSO concentration of 0.1%. […] Following incubation, 15 μl of BriteLite Plus luminescence reagent (Perkin Elmer) was added to each well of the 384-well assay plates. The plates were placed on an orbital shaker for 2 min and then luminescence was quantified using the Envision (Perkin Elmer) plate reader.

[8] = system: IL-6; experiment: IL-6 inhibition in LPS-stimulated human peripheral blood mononuclear cells (HTRF); conditions: Homo sapiens, PBMC; for EC50: 22 h; for inhibition at 10 µM: read-out: percentage in parentheses after EC50 >10
[9] = system: α-smooth muscle actin (aSMA) positive LL29 cells; experiment: Inhibition of the fibrotic process: αSMA staining in TGF-β1 treated LL29 fibroblasts from IPF patients; conditions: Homo sapiens, Fibroblast; for EC50: 96 h

GSK3β kinase, sequence (P49841 whole entry): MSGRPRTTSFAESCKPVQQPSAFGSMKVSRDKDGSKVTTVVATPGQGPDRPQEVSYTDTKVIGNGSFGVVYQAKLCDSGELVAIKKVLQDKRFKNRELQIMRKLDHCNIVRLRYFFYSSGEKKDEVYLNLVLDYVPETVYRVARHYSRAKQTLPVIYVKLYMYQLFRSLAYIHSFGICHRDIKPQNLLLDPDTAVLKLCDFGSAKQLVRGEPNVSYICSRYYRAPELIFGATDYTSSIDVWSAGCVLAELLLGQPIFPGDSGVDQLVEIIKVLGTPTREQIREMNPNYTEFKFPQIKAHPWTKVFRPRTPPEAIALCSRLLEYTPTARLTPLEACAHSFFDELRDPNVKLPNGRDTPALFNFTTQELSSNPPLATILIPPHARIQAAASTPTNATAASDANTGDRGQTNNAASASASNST

Row | SMILES | EC50 [1] [nM] | EC50 [2] [nM] | EC50 [3] [nM] | EC50 [4] [nM] | EC50 [5] [nM] | EC50 [6] [nM] | EC50 [7] [nM] | EC50 [8] [nM] | inhibition at 10 µM [8] [%] | EC50 [9] [nM] | inhibition at 10 µM [6] [%] | inhibition at 10 µM ([9]; read-out: percentage in parentheses after EC50 >10) [%]
1 | Cn1cc(-c2cc3cc(NC(=O)C4CCN(Cc5ncccn5)CC4)ncc3cn2)cn1 [Compound 3727, N-(6-(1-Methyl-1H-pyrazol-4-yl)-2,7-naphthyridin-3-yl)-1-(pyrimidin-2-ylmethyl)piperidine-4-carboxamide] | 4 | 18 | 398 | 15 | > 10000 | 6660 | 426 | > 10000 | 6.2 | 149 | – | –
2 | Cn1cc(-c2cc3cc(NC(=O)c4ccnc(N5CCNCC5)c4)ncc3cn2)cn1 [Compound 3773, N-(6-(1-Methyl-1H-pyrazol-4-yl)-2,7-naphthyridin-3-yl)-2-(piperazin-1-yl) isonicotinamide] | 16 | 852 | > 10000 | 268 | 305 | 5640 | 2820 | > 10000 | 1.1 | 3320 | – | –
3 | O=C(Nc1cc2cc(-c3cncs3)ncc2cn1)C1CCN(C2COC2)CC1 [Compound 4244, 1-(Oxetan-3-yl)-N-(6-(thiazol-5-yl)-2,7-naphthyridin-3-yl)piperidine-4-carboxamide] | 4 | 30 | 284 | 157 | > 10000 | > 10000 | 863 | > 10000 | 6.9 | > 10000 | 19.9 | 4.9
4 | Cc1ncc(-c2ccc3cnc(NC(=O)C4CCN(C(=O)CN5CCCC5)CC4)cc3n2)s1 [Compound 4561, N-(2-(2-Methylthiazol-5-yl)-1,6-naphthyridin-7-yl)-1-(2-(pyrrolidin-1-yl)acetyl)piperidine-4-carboxamide] | 7 | 182 | 2100 | 306 | 129 | > 10000 | 953 | 4560 | – | 664 | 49.5 | –
